Measured values reported in ChEMBL document CHEMBL1127793 (J Med Chem, 1994).
pIC50: −log10 of the molar value. Calls of active or inactive are those of the source. The rule behind the calls is not given here.

Assays:
Cavia porcellus = species: Cavia porcellus; assay: Tested for the inhibitory activity against neutrophil infiltration in response to LTB4 in guinea pig; format: functional
Homo sapiens [1] = species: Homo sapiens; assay: Tested for inhibitory activity against LTB4 induced chemotaxis of human neutrophils; format: functional
Homo sapiens [2] = species: Homo sapiens; assay: Tested for inhibitory activity against LTB4 induced up-regulation of CD11b on human neutrophils; format: functional
[3] = target: Leukotriene B4 receptor 1 (Mus musculus, UniProt O88855); assay: Tested for antagonistic activity in mouse spleen membrane against LTB4 receptor; format: functional, cell membranes
Mus musculus = assay: Oral administration of compound in 0.5% methyl cellulose inhibits the LTB4-induced response; format: functional
[4] = target: T1, Prostaglandin G/H synthase 2 (Ovis aries) (UniProt P79208); assay: Tested for inhibition of the Prostaglandin G/H synthase at 10 uM conc.; No inhibition
T1 sequence (whole entry): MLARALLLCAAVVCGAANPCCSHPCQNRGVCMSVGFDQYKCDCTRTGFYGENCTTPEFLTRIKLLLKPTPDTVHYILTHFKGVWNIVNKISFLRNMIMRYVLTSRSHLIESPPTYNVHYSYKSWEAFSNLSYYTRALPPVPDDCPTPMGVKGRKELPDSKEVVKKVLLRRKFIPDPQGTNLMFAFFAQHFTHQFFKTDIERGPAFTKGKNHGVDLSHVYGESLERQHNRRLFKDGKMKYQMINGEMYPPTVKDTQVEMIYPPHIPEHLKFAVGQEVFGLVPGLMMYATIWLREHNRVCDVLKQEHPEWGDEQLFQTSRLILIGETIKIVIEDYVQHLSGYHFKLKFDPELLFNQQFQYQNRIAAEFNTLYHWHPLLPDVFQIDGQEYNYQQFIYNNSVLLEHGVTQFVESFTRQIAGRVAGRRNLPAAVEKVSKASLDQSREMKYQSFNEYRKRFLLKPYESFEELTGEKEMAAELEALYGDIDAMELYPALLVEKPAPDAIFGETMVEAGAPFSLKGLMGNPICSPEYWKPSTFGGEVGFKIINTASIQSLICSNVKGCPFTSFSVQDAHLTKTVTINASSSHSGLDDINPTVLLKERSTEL

Leukotriene B4 receptor 1, sequence (O88855 whole entry): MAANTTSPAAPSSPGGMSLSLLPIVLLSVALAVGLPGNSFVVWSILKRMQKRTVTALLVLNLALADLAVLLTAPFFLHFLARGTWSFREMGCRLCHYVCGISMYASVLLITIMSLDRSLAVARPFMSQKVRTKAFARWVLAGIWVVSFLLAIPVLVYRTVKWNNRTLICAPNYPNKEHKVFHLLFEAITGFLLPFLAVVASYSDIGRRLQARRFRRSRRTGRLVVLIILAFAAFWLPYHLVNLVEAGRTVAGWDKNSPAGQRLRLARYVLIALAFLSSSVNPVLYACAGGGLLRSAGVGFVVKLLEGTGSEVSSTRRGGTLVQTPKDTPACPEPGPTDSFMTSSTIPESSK

Compound: O=C(O)C1(c2ccc3c(c2)OC[C@H](Cc2ccc(-c4ccccc4)cc2)[C@H]3O)CCCC1
- ED50 (Cavia porcellus): 0.26 mg/kg
- pIC50 (Homo sapiens [1]): 8.28
- pIC50 (Homo sapiens [2]): 6.37
- pIC50 [3]: 7.52
- ED50 (Mus musculus): 4.2 mg/kg
- inhibition [4]: inactive
